Data as given in patent US20130078260A1, “COMPOUNDS TARGETING THE VEGF AND/OR HIF PATHWAY SUCH AS SORAFENIB OR VATALANIB FOR USE IN THE TREATMENT OF OTITIS MEDIA” (MEDICAL RESEARCH COUNCIL, priority 2010, published 2013).
Read-outs that look alike come from different tables or passages of the source. Marks after values point to notes of the source that are not given here.

Columns and labels:
Jbo/+ mice = assay: Click-evoked Auditory Brain Stem response (ABR) change in drug-treated Junbo (Jbo/+) mice, chronic otitis media model; type: in vivo, mouse
Protocol: (§1) Drug treatment, ABR and analysis of inflammation. […] The sham
(§2) Jbo/+ group was matched for age, gender and pre-trial ABR (30-60 dB) and received vehicle alone. A click-evoked ABR (Zheng, Q. Y., et al. (1999) Hearing Res. 130, 94-107) was measured at the beginning and end of the trial (or after 3 wk in the 50 mg/kg PTK787 trial). For ABR with recovery, anesthesia was induced by i.p. injection with a mixture of 10 mg/kg xylazine and 100 mg/kg ketamine and was reversed by 5 mg/kg atipamezole hydrochloride. Histology was assessed at 4 wk in both PTK787 trials.
(§3) Statistics. Student t-tests or Mann Whitney U tests (for ABR measurements where interval data was in 5 dB increments) were performed and test values p<0.05 were considered significant. Percentages were arcsine transformed before using t-tests. In the drug trials, 1-tailed tests were used compare drug and sham-treated groups, otherwise 2-tailed tests were used.

WT mice = assay: Click-evoked ABR change in drug-treated WT littermate mice; type: in vivo, mouse
Protocol: as §1, §2, §3

mice = details: mouse, in vivo, po
Text: as §1

[1] = system: Jbo/+ mice middle ear mucosa; assay: Histological analysis of inflammation in middle ear mucosa of drug-treated Jbo/+ mice; type: in vivo, mouse
Protocol: as §1, §2
Image capture and analysis. Digital images were captured on an Olympus BX51 microscope using ×20, ×40 or ×60 Plan Achromat objectives with neutral density filter, on a ColorView Soft Imaging System software using automatic exposures. In the drug trials, H&E stained sections for image analysis were scanned at ×400 magnification on a Nanozoomer digital pathology system (Hamamatsu Photonics). Eardrum thickness and the thickness of the mucosa along its medial surface (avoiding the cochlea and the region adjacent to the opening of the Eustachian tube) were averaged from 5 measurements. The number of capillaries and lymphatic vessels and their respective diameters were measured in a standardized 1000 μm length of medial mucosa. The treatment and genotype were blinded from the assessor when making the morphological measurements.
as §3

[2] = both 50 mg/kg and 75 mg/kg trials, 4 wk, vs sham

With `CN(CCOc1ccc(CC2SC(=O)NC2=O)cc1)c1ccccn1` (stereo not shown) [Rosiglitazone] the “ΔABR (dB) Jbo/+ drug” value (Jbo/+ mice; Jbo/+ mice, 20 mg/kg, 28 days, mean, SEM (n) printed in the row below) was 9.7 dB and the “ΔABR (dB) WT” value (WT mice; 20 mg/kg, 28 days, mean, SEM (n) printed in the row below) was 1.4 dB.

In the case of `CCN(CC)CCNC(=O)c1c(C)[nH]c(/C=C2\C(=O)Nc3ccc(F)cc32)c1C` [SU-11248], the “Effect on hearing loss” value (Jbo/+ mice; Junbo mice, 28 d treatment, vs sham (FIG. 6B)) is reported as “moderates hearing loss”.

`CNC(=O)c1cc(Oc2ccc(NC(=O)Nc3ccc(Cl)c(C(F)(F)F)c3)cc2)ccn1` [BAY 43-9006] was tested, and the “ΔABR (dB) Jbo/+ drug” value (Jbo/+ mice; Jbo/+ mice, 30 mg/kg, 15 days, oral gavage once a day, mean ± SEM (n)) was 0.9 ± 1.5 (11)^e dB, the “Effect on hearing loss” value (Jbo/+ mice; Jbo/+ mice, treatment for 2 wk, vs sham control) was “reduced hearing loss” and the “ΔABR (dB) WT” value (WT mice; 30 mg/kg, 15 days, mean ± SEM (n)) was −2.0 ± 1.2 (5) dB. For the same molecule, the “Tolerability / adverse signs” value (mice; Junbo (Jbo/+) mutant and WT, 2 wk) was “not as well tolerated as PTK787”, the “Tolerability / adverse signs” value (mice) was “mice suddenly became piloerect” and the Lymphatic vessel dilation ([1]; 2 wk trial, n=11, sham 14.2±0.9 μm, P=0.0072) was 9.9±1.0 μm.

`CO[C@H]1/C=C\C=C(/C)C(=O)NC2=CC(=O)C(NCCN(C)C)=C(C[C@@H](C)C[C@H](OC)[C@H](O)[C@@H](C)/C=C(\C)[C@@H]1OC(N)=O)C2=O` [17-DMAG, 17-dimethylaminoethylamino-17-demethoxy-geldanamycin] was tested, and the “Effect on hearing loss” value (Jbo/+ mice; Jbo/+ mice, 10 mg/kg, 28 d treatment, vs sham (FIG. 6E)) was “moderated hearing loss”.

`Clc1ccc(Nc2nnc(Cc3ccncc3)c3ccccc23)cc1` [PTK787/ZK 222584] was tested, and the “ΔABR (dB) WT” value (WT mice; 50 mg/kg, 21 days, mean ± SEM (n)) was −0.6 ± 1.1 (8) dB, the “ΔABR (dB) WT” value (WT mice; 75 mg/kg, 28 days, mean ± SEM (n)) was 0.0 ± 0.9 (8) dB and the Mucosal thickening ([1]; 50 mg/kg trial, 4 wk, vs sham) was “moderated mucosal thickening”. For the same molecule, the Lymphatic vessel dilation ([1]; 75 mg/kg dosage group, 4 wk, vs sham) was “moderated”, the “Angiogenesis (blood vessel number in mucosa)” value [1, 2] was “reduced” and the Lymphatic vessel number [1, 2] was “reduced”.
